The target in the first test is T1, human PTH1 receptor (Homo sapiens, UniProt Q03431).
T1 sequence (Q03431 27-593): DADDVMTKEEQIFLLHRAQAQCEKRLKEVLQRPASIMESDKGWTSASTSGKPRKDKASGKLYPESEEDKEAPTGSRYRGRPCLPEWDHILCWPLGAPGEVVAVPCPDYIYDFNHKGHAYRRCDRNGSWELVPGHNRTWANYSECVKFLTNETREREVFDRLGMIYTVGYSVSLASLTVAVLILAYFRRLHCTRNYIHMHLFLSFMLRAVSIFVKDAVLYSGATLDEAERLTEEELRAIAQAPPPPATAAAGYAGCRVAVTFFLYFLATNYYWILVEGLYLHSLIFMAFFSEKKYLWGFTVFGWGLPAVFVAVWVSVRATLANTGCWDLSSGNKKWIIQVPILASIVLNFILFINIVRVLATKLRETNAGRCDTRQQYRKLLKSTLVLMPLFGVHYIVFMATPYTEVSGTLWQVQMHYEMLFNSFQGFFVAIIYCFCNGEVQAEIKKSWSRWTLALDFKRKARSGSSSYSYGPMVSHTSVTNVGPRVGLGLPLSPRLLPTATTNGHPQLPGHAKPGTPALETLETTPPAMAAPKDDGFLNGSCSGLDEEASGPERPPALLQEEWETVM
The experiment in a line: In vitro cAMP signal activity in HKRK-B7 cells (LLC-PK1 cells overexpressing the human PTH1 receptor). It counts as cell-based. The note with it: HKRK-B7 cells; compound at 1×10^−3 M; […]; 0.1 µM.
For `CC(=O)N1CCC(N(C(C)=O)c2ccc(/C=C/S(=O)(=O)N3CCC4(CC3)N=C(c3cccc(OC(F)(F)F)c3)NC4=O)c(C)c2)CC1` [Compound 1294, N-(1-Acetyl-piperidin-4-yl)-N-(3-methyl-4-{(E)-2-[4-oxo-2-(3-trifluoromethoxy-phenyl)-1,3,8-triaza-spiro[4.5]dec-1-ene-8-sulfonyl]-vinyl}-phenyl)-acetamide], the “cAMP production activity (%)” value is on record as 76%.

Still in this test, the particulars now being: HKRK-B7 cells; compound at 1×10^−3 M; cAMP produced as percentage of that produced by hPTH(1-34) at 100 nM.
For the molecule `Cc1cc(C(=O)N2CCC(O)(CF)CC2)cc(C)c1/C=C/S(=O)(=O)N1CCC2(CC1)N=C(c1ccc3c(c1)OC(F)(F)O3)NC2=O` [Compound 1280, 2-(2,2-difluoro-benzo[1,3]dioxol-5-yl)-8-{(E)-2-[4-(4-fluoromethyl-4-hydroxy-piperidine-1-carbonyl)-2,6-dimethyl-phenyl]-ethenesulfonyl}-1,3,8-triaza-spiro[4.5]dec-1-en-4-one], the “cAMP production activity (%)” value stood at 74%.

Take `CC(=O)N(CCO)c1ccc(C)c(CCS(=O)(=O)N2CCC3(CC2)N=C(c2cccc(OC(F)(F)F)c2)NC3=O)c1` [Compound 326, N-(2-Hydroxy-ethyl)-N-(4-methyl-3-{2-[4-oxo-2-(3-trifluoromethoxy-phenyl)-1,3,8-triaza-spiro[4.5]dec-1-ene-8-sulfonyl]-ethyl}-phenyl)-acetamide]: the “cAMP production activity (%)” value is listed as 76%. In the case of `Cc1cc(CN2C(=O)NC(C)(C)C2=O)cc(C)c1/C=C/S(=O)(=O)N1CCC2(CC1)N=C(C1CCC(CCC(F)(F)F)CC1)NC2=O` (stereo not drawn) [Compound 555, 3-[3,5-dimethyl-4-((E)-2-{4-oxo-2-[4-(3,3,3-trifluoro-propyl)-cyclohexyl]-1,3,8-triaza-spiro[4.5]dec-1-ene-8-sulfonyl}-vinyl)-benzyl]-5,5-dimethyl-imidazolidine-2,4-dione], the “cAMP production activity (%)” value is 40%. On the same count and under the same terms, with `Cc1cc(C(=O)N(C)C)ccc1CCS(=O)(=O)N1CCC2(CC1)N=C(Cc1ccccc1)NC2=O` [Compound 83, 4-[2-(2-benzyl-4-oxo-1,3,8-triaza-spiro[4.5]dec-1-ene-8-sulfonyl)-ethyl]-3,N,N-trimethyl-benzamide] the figure was 41%. Still for that read-out and setting: under `Cc1cc(C(=O)N2CCC(O)CC2)cc(C)c1/C=C/S(=O)(=O)N1CCC2(CC1)N=C(c1cccc(OC(F)(F)F)c1)NC2=O` [Compound 400, 8-{(E)-2-[4-(4-hydroxy-piperidine-1-carbonyl)-2,6-dimethyl-phenyl]-ethenesulfonyl}-2-(3-trifluoromethoxy-phenyl)-1,3,8-triaza-spiro[4.5]dec-1-en-4-one] stands 76%; under `CC(=O)Nc1ccc(CCS(=O)(=O)N2CCC3(CC2)N=C(C2CCCC2)NC3=O)c(C)c1` [Compound 903, N-{4-[2-(2-Cyclopentyl-4-oxo-1,3,8-triaza-spiro[4.5]dec-1-ene-8-sulfonyl)-ethyl]-3-methyl-phenyl}-acetamide], 56%; under `Cc1ccccc1CCS(=O)(=O)N1CCC2(CC1)N=C(C1CCCCC1)NC2=O` [Compound 277, 2-cyclohexyl-8-(2-o-tolyl-ethanesulfonyl)-1,3,8-triaza-spiro[4.5]dec-1-en-4-one], 38%.

Take `O=C1NC(C2CCCCC2)=NC12CCN(S(=O)(=O)/C=C/c1cc3nc[nH]c3cc1C(F)(F)F)CC2` [Compound 499, 2-cyclohexyl-8-[(E)-2-(6-trifluoromethyl-1H-benzimidazol-5-yl)-ethenesulfonyl]-1,3,8-triaza-spiro[4.5]dec-1-en-4-one]: the “cAMP production activity (%)” value came out at 40%. For the molecule `O=C1Cc2c(/C=C/S(=O)(=O)N3CCC4(CC3)N=C(C3CCCCC3)NC4=O)cccc2N1` [Compound 634, 2-cyclohexyl-8-[(E)-2-(2-oxo-2,3-dihydro-1H-indol-4-yl)-ethenesulfonyl]-1,3,8-triaza-spiro[4.5]dec-1-en-4-one], the “cAMP production activity (%)” value is 29%. On to `Cc1cc2ccc1CCS(=O)(=O)N1CCC3(CC1)N=C(NC3=O)c1cc(cc(C(F)(F)F)c1)OCCCCCOCCNC2=O` [Compound 1427], for which the “cAMP production activity (%)” value is on record as 72%. For `Cc1cc(N(C)c2c(N)c(=O)c2=O)cc(C)c1CCS(=O)(=O)N1CCC2(CC1)N=C([C@H]1CC[C@H](C)CC1)NC2=O` [Compound 1368, 3-Amino-4-[(3,5-dimethyl-4-{2-[2-(4-methyl-cyclohexyl)-4-oxo-1,3,8-triaza-spiro[4.5]dec-1-ene-8-sulfonyl]-ethyl}-phenyl)-methyl-amino]-cyclobut-3-ene-1,2-dione], the “cAMP production activity (%)” value is recorded as 83%. On to `Cc1cc(S(=O)(=O)NC[C@@H](O)CO)ccc1/C=C/S(=O)(=O)N1CCC2(CC1)N=C(c1cccc(OC(F)(F)F)c1)NC2=O` [Compound 599, N—((R)-2,3-dihydroxy-propyl)-3-methyl-4-{(E)-2-[4-oxo-2-(3-trifluoromethoxy-phenyl)-1,3,8-triaza-spiro[4.5]dec-1-ene-8-sulfonyl]-vinyl}-benzenesulfonamide], for which the “cAMP production activity (%)” value is 59%. The same measure, in the same setting: under `CCCC(CCC)C1=NC2(CCN(S(=O)(=O)CCc3c(C)cc(N(C)C(N)=O)cc3C)CC2)C(=O)N1` [Compound 1041, 1-(3,5-dimethyl-4-{2-[4-oxo-2-(1-propyl-butyl)-1,3,8-triaza-spiro[4.5]dec-1-ene-8-sulfonyl]-ethyl}-phenyl)-1-methyl-urea] stands 38%; under `Cc1cc(N2C[C@H](O)CC2=O)ccc1CCS(=O)(=O)N1CCC2(CC1)N=C(c1cccc(C(F)(F)F)c1)NC2=O` [Compound 297, 8-{2-[4-((R)-4-hydroxy-2-oxo-pyrrolidin-1-yl)-2-methyl-phenyl]-ethanesulfonyl}-2-(3-trifluoromethyl-phenyl)-1,3,8-triaza-spiro[4.5]dec-1-en-4-one], 91%; under `Cc1cc(C(=O)N(C)C)ccc1CCS(=O)(=O)N1CCC2(CC1)N=C(c1ccc(C(F)(F)F)cc1)NC2=O` [Compound 75, 3,N,N-trimethyl-4-{2-[4-oxo-2-(4-trifluoromethyl-phenyl)-1,3,8-triaza-spiro[4.5]dec-1-ene-8-sulfonyl]-ethyl}-benzamide], 75%.

Consider `Cc1cc(C(=O)N(C)C)ccc1-c1ccc(S(=O)(=O)N2CCC3(CC2)N=C(c2cccc(OC(F)(F)F)c2)NC3=O)cc1` [Compound 336, 2-methyl-4′-[4-oxo-2-(3-trifluoromethoxy-phenyl)-1,3,8-triaza-spiro[4.5]dec-1-ene-8-sulfonyl]-biphenyl-4-carboxylic acid dimethylamide], for which the “cAMP production activity (%)” value is recorded as 28%. `Cc1cc(NC2=NCCS2)cc(C)c1/C=C/S(=O)(=O)N1CCC2(CC1)N=C(C1CCCCC1)NC2=O` [Compound 738, 2-Cyclohexyl-8-{(E)-2-[4-(4,5-dihydro-thiazol-2-ylamino)-2,6-dimethyl-phenyl]-ethenesulfonyl}-1,3,8-triaza-spiro[4.5]dec-1-en-4-one]: the “cAMP production activity (%)” value is on record as 79%.

Regarding `Cc1cc(C(=O)N2CC(C)(O)C2)cc(C)c1/C=C/S(=O)(=O)N1CCC2(CC1)N=C(c1ccc(F)c(C(F)(F)F)c1)NC2=O` [Compound 970, 2-(4-fluoro-3-trifluoromethyl-phenyl)-8-{(E)-2-[4-(3-hydroxy-3-methyl-azetidine-1-carbonyl)-2,6-dimethyl-phenyl]-ethenesulfonyl}-1,3,8-triaza-spiro[4.5]dec-1-en-4-one], the “cAMP production activity (%)” value came to 112%. Take `Cc1cc(N(C)C(N)=O)cc(C)c1CCS(=O)(=O)N1CCC2(CC1)N=C(C1C[C@@H](C)[C@@H](C)C1)NC2=O` (stereo partly drawn) [Compound 1051, 1-(4-{2-[2-(cis-3,4-dimethyl-cyclopentyl)-4-oxo-1,3,8-triaza-spiro[4.5]dec-1-ene-8-sulfonyl]-ethyl}-3,5-dimethyl-phenyl)-1-methyl-urea]: the “cAMP production activity (%)” value stood at 85%. Still for that read-out and setting: under `O=C(CO)NCc1ccc(/C=C/S(=O)(=O)N2CCC3(CC2)N=C(C2CCCCC2)NC3=O)cc1` [Compound 489, N-{4-[(E)-2-(2-cyclohexyl-4-oxo-1,3,8-triaza-spiro[4.5]dec-1-ene-8-sulfonyl)-vinyl]-benzyl}-2-hydroxy-acetamide] stands 37%; under `Cc1cc(CN)cc(C)c1/C=C/S(=O)(=O)N1CCC2(CC1)N=C(C1CCC(C)CC1)NC2=O` (stereo not drawn) [Compound 1291, 8-[(E)-2-(4-aminomethyl-2,6-dimethyl-phenyl)-ethenesulfonyl]-2-(4-methyl-cyclohexyl)-1,3,8-triaza-spiro[4.5]dec-1-en-4-one], 48%; under `Cc1cc2ccc1CCS(=O)(=O)N1CCC3(CC1)N=C(NC3=O)c1ccc(C(F)(F)F)c(c1)OCCCC=COCCN(C)C2=O` [Compound 1431], 15%. Same read-out and setting: with `Cc1cc(S(=O)(=O)NC(CO)(CO)CO)ccc1CCS(=O)(=O)N1CCC2(CC1)N=C(c1cccc(C(F)(F)F)c1)NC2=O` [Compound 854, N-(2-hydroxy-1,1-bis-hydroxymethyl-ethyl)-3-methyl-4-{2-[4-oxo-2-(3-trifluoromethyl-phenyl)-1,3,8-triaza-spiro[4.5]dec-1-ene-8-sulfonyl]-ethyl}-benzenesulfonamide] the figure was 80%.

(Values after US9169254B2, “Spiroimidazolone derivative” (Chugai Seiyaku Kabushiki Kaisha, priority 2009, dated 2015).)
